Experimental data published in patent publication US5639726A, “Peptide mediated enhancement of thrombolysis methods and compositions” (The Regents of the University of Michigan, priority 1994, dated 1997).
Ends that are not written are not given here.

How the values were obtained:
[1] = target: T1, PAI-1 (Homo sapiens, UniProt P05121); assay: Plasminogen activator inhibitor 1 activity assay (t-PA, Spectrozyme t-PA); type: biochemical; settings: for PAI-1 T1/2: PAI-1 0.7 μM, peptide 55 μM, 98±18 min without peptide
T1 construct: made in house; host or cells: E. coli (vector pET3a)
Protocol: PAI-1 (0.7 μM) was incubated at 37° C. with either P1-P14 peptide or control peptide (55 μM) in 0.1M HEPES, 0.1M NACl, 0.1% PEG (MW 8000), pH 7.4 (assay buffer). At timed intervals 0-110 minutes), 5 μL of the PAI-1:peptide mixture was added to 96 well microtiter plates containing 45 μL of t-PA (0.03 μM in assay buffer), then incubated for 30 minutes at 37° C. Spectrozyme t-PA (final concentration of 150 μM) was added to yield a final reaction volume of 70 μL, and 30 minutes later the absorbance at 405 nm was determined in a THERMO-max (Molecular Devices, Palo Alto, Calif.) microplate reader. 100% PAI-1 activity was defined as activity observed at time zero, while 0% PAI-1 activity was defined as that observed in the absence of PAI-1. A standard t-PA activity curve, derived from absorbance values of varying concentrations of t-PA incubated in the absence of PAI-1, was used to determine PAI-1 activity.

[2] = test system: fibrin clot; assay: In vitro clot lysis assay, fluorescein-labeled fibrin clots with recombinant PAI-1; type: biochemical, human
Protocol: Clot lysis assays were performed as previously described (Fay et al., 1994). A mixture of glu-plasminogen (0.2 μM), fluorescein-labeled fibrinogen (3 μM), PAI-1 (0.7 μM) was prepared. t-PA (20 nM) was added 30 minutes after clot formation and clot lysis was allowed to occur for 60 minutes at 37° C., after which the tubes were centrifuged (16,000×3 min), and 80 μL of the supernatant was removed and diluted into 1.2 mL of 10 mM Tris-HCl, 140 mM NaCl, pH 7.5. The fluorescence of this dilution was measured and % clot lysis was calculated, as previously described (Fay et al., 1994). The capacity of P1-P14 peptide to accelerate fibrinolysis in vitro, both in the absence and presence of platelets was also evaluated. Fluorescein-labeled fibrin clots were formed in the presence of recombinant PAI-1 (0.7 μM) and either P1-P14 peptide (55 μM), an irrelevant 14 amino acid peptide (55 μM), or no peptide. After 30 min at 37° C., fibrinolysis was initiated by the addition of t-PA (20 nM), and % clot lysis was determined 60 min later. Addition of P1-P14 peptide increased clot lysis from 28±7% to 90±6% (mean±SEM of triplicate experiments), whereas the control peptide had no effect on clot lysis either in the presence or absence of PAI-1 (FIG. 6a). In similar experiments, platelet-rich clots were formed by clotting fluorescein-labeled fibrinogen in the presence of 2.5×10^8 platelets/mL, and fibrinolysis was initiated by the addition of t-PA (75 pM).

[3] = test system: platelet-rich clots; assay: In vitro clot lysis assay, platelet-rich clots; type: biochemical, human
Protocol: Blood samples were collected by peripheral venipuncture from normal subjects into acid-citrate-dextrose anticoagulant (0.8% w/v citric acid, 2.2% trisodium citrate, 2.45% dextrose) at a ratio of 6 volumes of blood to 1 volume of anticoagulant. Donors had not consumed aspirin for at least 7 days prior to phlebotomy. Washed platelets were prepared by repeated centrifugation as previously described (Fay et al., 1994), then resuspended in Tyrode's buffer (137 mM NACl, 2.68 mM KCl, 2 mM CaCl2, 1 mM MgCl2, 0.36 mM NaH2 PO4, 11.9 mM NaHCO3, 5 mM HEPES, 0.1% glucose, 0.35% bovine serum albumin, pH 7.35). Clot lysis assays were performed as previously described (Fay et al., 1994). […] The fluorescence of this dilution was measured and % clot lysis was calculated, as previously described (Fay et al., 1994). […] The capacity of P1-P14 peptide to accelerate fibrinolysis in vitro, both in the absence and presence of platelets was also evaluated. […] After 30 min at 37° C., fibrinolysis was initiated by the addition of t-PA (20 nM), and % clot lysis was determined 60 min later. […]

[4] = target: T1, PAI-1; assay: Kinetics of peptide annealing: residual PAI inhibitory activity assayed with β-trypsin and S-2222; type: biochemical; settings: for k / kobs / t1/2 of PAI-1 inactivation: 25° C.

T1 sequence (P05121 24-402): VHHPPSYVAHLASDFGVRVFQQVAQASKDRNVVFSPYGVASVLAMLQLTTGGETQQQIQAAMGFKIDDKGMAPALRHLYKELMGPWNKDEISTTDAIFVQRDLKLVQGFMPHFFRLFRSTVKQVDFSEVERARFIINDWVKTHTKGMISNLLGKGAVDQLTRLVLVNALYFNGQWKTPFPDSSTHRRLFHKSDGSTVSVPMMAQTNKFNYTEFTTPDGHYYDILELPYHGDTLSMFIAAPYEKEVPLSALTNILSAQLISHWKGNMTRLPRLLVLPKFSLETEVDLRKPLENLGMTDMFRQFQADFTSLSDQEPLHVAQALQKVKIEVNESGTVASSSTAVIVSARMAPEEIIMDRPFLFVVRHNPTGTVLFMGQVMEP

Ac-TVASSSTAVIVSAR [SEQ ID NO: 1, Thr-Val-Ala-Ser-Ser-Ser-Thr-Ala-Val-Ile-Val-Ser-Ala-Arg]
PAI-1 T1/2 ([1]; 37° C.): approximately four | PAI-1 T1/2 ([1]; 37° C., listed as P1-P14 peptide): 4 ± 3 min | fold shortening of the PAI-1 T1/2 ([1]; 37° C., peptide 55 μM vs no peptide, listed as P1-P14 peptide): 24 fold | drop in t1/2, wt14-mer (37° C.) compared to wt8-mer (25° C.) ([1]; similar peptide concentrations (55 μM)): 100 fold | dependence of the degree of clot lysis on peptide concentration [2]: proportional | inhibition of PAI-1 function in the presence of fibrin [2]: nearly completely inhibited | effect on clot lysis in the absence of PAI-1 ([2]; absence of PAI-1): no augmentation of fibrinolysis | clot lysis at 60 minutes ([2]; presence of PAI-1 (0.7 μM), peptide 55 μM, t-PA 20 nM, 28±7% without peptide): 90±6% | tPA induced platelet rich clot lysis ([3]; 70 μM peptide): significant enhancement | lysis of platelet-rich clots at 90 minutes ([3]; 2.5×10^8 platelets/mL, t-PA 75 pM, 8±3% without peptide): 41±12% | half-life of PAI inactivation ([4]; 0.9 μM PAI, 64 μM peptide): 4.3 min | k ([4]; peptide 1.5 mM): .022 M⁻¹ s⁻¹ | kobs ([4]; peptide 1.5 mM): .12 h⁻¹ | t1/2 of PAI-1 inactivation ([4]; peptide 1.5 mM): 5.8 h | k ([4]; peptide 3.5 mM): .020 M⁻¹ s⁻¹ | kobs ([4]; peptide 3.5 mM): .25 h⁻¹ | t1/2 of PAI-1 inactivation ([4]; peptide 3.5 mM): 2.7 h | kobs ([4]; peptide 5.5 mM): .28 h⁻¹ | t1/2 of PAI-1 inactivation ([4]; peptide 5.5 mM): 2.5 h | k ([4]; peptide 7 mM): .012 M⁻¹ s⁻¹ | kobs ([4]; peptide 7 mM): .31 h⁻¹ | t1/2 of PAI-1 inactivation ([4]; peptide 7 mM): 2.2 h | k ([4]; peptide 9 mM): .017 M⁻¹ s⁻¹ | kobs ([4]; peptide 9 mM): .54 h⁻¹ | t1/2 of PAI-1 inactivation ([4]; peptide 9 mM): 1.3 h
